Experimental data from US9388133B2, “Pyrrole sulfonamide derivative, preparation method for same, and medical application thereof” (Jiangsu Hansoh Pharmaceutical Co., Ltd., priority 2012, dated 2016).

Tests used:
[1] = test system: gastric acid secretion of rats with pyloric ligation induced ulcer; experiment: Inhibition of gastric acid secretion of rats with pyloric ligation induced ulcer, histamine-stimulated, 1 h after administration (Test Example 2); assay type: in vivo, rat; details: SD male rats, 2 mg/kg i.g., acid output within 3 h of histamine
Protocol: A rat gastric ulcer model, in which rat gastric acid secretion was promoted by pyloric ligation and histamine hydrochloride, was established in the following experiment, for evaluating the effect of the test compounds on inhibition of gastric acid secretion.
(§1) Sixteen 7-week-old Sprague-Dawley (SD) male rats with a weight of about 250 g were purchased form Sippr-BK (batch number: 2008001621913). The rats were fed by 4 rats/cage, 12/12 h light/dark cyclic regulation was performed, the temperature was constant at 23±1° C., the humidity was 50-60%, and the rats took food and water freely.
The compound of Example 1, which was prepared into a solution/suspension with 0.5% of sodium carboxymethylcellulose (CMC-Na).
(§2) The rats were fasted for about 4 h. 2 mg/kg of the compound of Example 1 or 0.5% of CMC-Na were administrated intragastrically (i. g.) to the rats, and then 1.2 g/kg of urethane was injected intraperitoneally within 1 h. […] After centrifugalizing at 4000 rpm for 5 min, the supernatant fluid was sucked up, and the volume of each sample was measured accurately. […]
(§3) Gastric acid titration: the mean value (mean±S.D.) was calculated in each group by Excel software, t test was performed on the total acid value of gastric acid from treatment groups and model group subjects/animals at each time point after drug administration to judge whether a significant difference existed or not. […]

[2] = test system: gastric acid secretion of rats with pyloric ligation induced ulcer; experiment: Inhibition of gastric acid secretion of rats with pyloric ligation induced ulcer, histamine-stimulated, 24 h after administration (Test Example 3); assay type: in vivo, rat; details: SD male rats, acid output within 3 h of histamine
Protocol: A rat gastric ulcer model, in which rat gastric acid secretion was promoted by pyloric ligation and histamine hydrochloride, was established in the following experiment, for evaluating the effect of the test compounds on inhibition of the gastric acid secretion.
as §1, with “Twenty-four (24)” for “Sixteen”, “SD” for “Sprague-Dawley (SD)”
The compound of Example 1 was prepared into a solution/suspension with 0.5% of CMC-Na.
as §2, with “about 24 h.” for “about”, “4 mg/kg and 8” for “4 h. 2”, “(i. g)” for “(i. g.)”, “within 24” for “within 1”, “for 10” for “for 5”
as §3

H^+/K^+-ATPase = target: T1, H^+/K^+-ATPase (Sus scrofa, UniProt P19156); experiment: H+/K+-ATPase enzyme activity inhibition (malachite green, microsomes of porcine gastric mucosa); assay type: biochemical; details: pH 6.5, 10 mmol/L KCl, 37° C. 30 min
T1 construct: Microsomes of porcine gastric mucosal (rich in H^+/K^+-ATPase) obtained by sucrose gradient centrifugation; from tissue; host or cells: porcine gastric mucosa microsomes (self-manufactured, sucrose/ficoll gradient centrifugation)
T1 sequence (P19156 2-1034 limits assumed): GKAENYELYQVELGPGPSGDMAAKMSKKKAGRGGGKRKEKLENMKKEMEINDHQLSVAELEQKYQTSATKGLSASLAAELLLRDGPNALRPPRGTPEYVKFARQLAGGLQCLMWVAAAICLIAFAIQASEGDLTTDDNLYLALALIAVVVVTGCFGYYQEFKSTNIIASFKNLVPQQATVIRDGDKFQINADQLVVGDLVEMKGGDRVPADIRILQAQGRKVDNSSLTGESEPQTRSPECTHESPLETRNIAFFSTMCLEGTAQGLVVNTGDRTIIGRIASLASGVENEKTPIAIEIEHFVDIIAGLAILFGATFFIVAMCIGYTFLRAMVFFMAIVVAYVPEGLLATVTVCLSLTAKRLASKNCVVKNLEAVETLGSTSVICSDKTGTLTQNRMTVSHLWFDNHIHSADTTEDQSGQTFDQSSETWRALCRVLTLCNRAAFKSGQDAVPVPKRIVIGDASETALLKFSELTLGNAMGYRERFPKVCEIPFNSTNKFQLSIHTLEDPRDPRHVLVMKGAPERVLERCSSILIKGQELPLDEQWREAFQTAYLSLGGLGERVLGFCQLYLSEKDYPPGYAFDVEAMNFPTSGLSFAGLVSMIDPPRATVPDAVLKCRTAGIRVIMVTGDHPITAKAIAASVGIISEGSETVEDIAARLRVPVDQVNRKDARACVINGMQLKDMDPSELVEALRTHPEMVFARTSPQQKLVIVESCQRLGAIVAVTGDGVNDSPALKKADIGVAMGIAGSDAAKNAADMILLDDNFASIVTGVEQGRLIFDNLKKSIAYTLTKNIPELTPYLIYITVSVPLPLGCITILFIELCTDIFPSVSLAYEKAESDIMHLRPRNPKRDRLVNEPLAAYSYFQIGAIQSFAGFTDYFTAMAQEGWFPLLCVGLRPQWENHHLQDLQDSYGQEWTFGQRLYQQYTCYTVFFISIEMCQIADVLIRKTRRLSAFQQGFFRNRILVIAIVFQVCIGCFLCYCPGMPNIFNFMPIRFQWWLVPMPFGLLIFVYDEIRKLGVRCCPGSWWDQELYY
T1 sequence (P18434 whole entry partner): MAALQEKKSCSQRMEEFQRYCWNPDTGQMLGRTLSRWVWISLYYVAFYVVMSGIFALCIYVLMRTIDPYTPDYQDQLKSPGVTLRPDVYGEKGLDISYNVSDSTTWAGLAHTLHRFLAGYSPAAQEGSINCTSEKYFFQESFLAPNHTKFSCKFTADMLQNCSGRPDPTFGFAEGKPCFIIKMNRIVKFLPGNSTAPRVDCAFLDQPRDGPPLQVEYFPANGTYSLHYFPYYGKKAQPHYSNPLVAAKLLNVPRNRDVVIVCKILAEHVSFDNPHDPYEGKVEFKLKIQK
Protocol: The following in-vitro screening test was used for determining the inhibition effect of the compounds of the present invention on enzyme activity of H^+/K^+-ATPase.
1. microsomes of porcine gastric mucosa (rich in H^+/K^+-ATPase) (self-manufactured)
1. The compounds were prepared into appropriate concentrations of 10000, 1000, 100, 10, 1 and 0.1 nM with 100% DMSO;
2. Buffer solution 1: 50 mmol/L of HEPES-Tris, 5 mmol/L of magnesium chloride, pH of 6.5;
3. Buffer solution 2: 50 mmol/L of HEPES-Tris, 5 mmol/L of magnesium chloride, pH of 6.5, 10 mmol/L of potassium chloride, pH=6.5;
4. ATP: ATP was diluted with the buffer solution 1 to 2 mM;
5. Malachite green solution: 0.12% of malachite green was dissolved in 2.5 moles of a mixture of sulfuric acid, 7.5% ammonium molybdate and 11% Tween 20, the three components were mixed according to a ratio of 100:25:2 during the use.
6. Microsomes of porcine gastric mucosal (rich in H^+/K^+-ATPase) obtained by sucrose gradient centrifugation: a porcine stomach was washed with running water, and immersed into 3 mol/L of concentrated brine for 1-2 min, and then wiped dry; the gastric mucosas were separated, minced, then suspended in a solution of 0.25 mol/L of sucrose, 1 mmol/L of EDTA, and 10 mmol/L of Tris-HCl; homogenization treatment was performed (the ratio was 100 g:330 mL, and 300 mL was further added after the completion of full homogenization), and the resulting homogenate was centrifugalized at 20000G for 30 min to remove the precipitate; the supernatant fluid was taken and centrifugalized at 100000G for 90 min; the precipitate was taken and suspended in 0.25 mol/L of sucrose solution, 0.25 mol/L of sucrose, 7.5% of ficoll were added at the bottom and centrifugalized at 100000G for 5 h. The substances between two liquid surface layers were collected, and then washed with 0.25 mol/L of sucrose solution while being shaken, and the resulting microsomal enzymes were kept at −80° C. for preservation and later use.
10 μL of microsomes of gastric mucosa (H^+/K^+-ATPase) were added to 79 μL of the buffer solution 2, followed by addition of 1 μL of the compound solutions with various concentrations, and then 10 μL of 2 mM ATP were added to start the reaction. It was reacted at 37° C. for 30 min. 30 μL of malachite green solution was added to terminate the reaction, and the reaction solution was kept at room temperature for 20 min, and then an OD value was read at 620 nm on a Victor3 microplate reader, and the inhibition rates of the compounds at various concentrations against H^+/K^+-ATPase were calculated.
Simultaneously, the reaction without addition of potassium chloride was taken as a background, which was subtracted when enzyme activity was calculated.
IC50 values can be calculated from the inhibition rates of the test compounds at various concentrations.

Compound | IC50 (H^+/K^+-ATPase) | acid inhibition rate at 1 h [1] | acid inhibition rate at 24 h ([2]; 4 mg/kg i.g.) | acid inhibition rate at 24 h ([2]; 8 mg/kg i.g.)
CNCc1cc(-c2ccccc2F)n(S(=O)(=O)c2cccc(OCC(=O)NC)c2)c1 [Example 1, 2-(3-((2-(2-fluorophenyl)-4-((methylamino)methyl)-1H-pyrrol-1-yl)sulfonyl)phenoxy)-N-methylacetamide] | 21 nM | 89.3% | 89.6% | 99.4%
CNCc1cc(-c2ccccc2F)n(S(=O)(=O)c2cccc(OCC3(C(=O)NC)CC3)c2)c1 [Example 5, 1-((3-((2-(2-fluorophenyl)-4-((methylamino)methyl)-1H-pyrrol-1-yl)sulfonyl)phenoxy)methyl)-N-methylcyclopropylcarboxamide] | 81 nM | – | – | –
CNCc1cc(C2=CCCCC2)n(S(=O)(=O)c2cccc(OCC(=O)NC3CC3)c2)c1 [Example 7, 2-(3-((2-(cyclohex-1-en-1-yl)-4-((methylamino)methyl)-1H-pyrrol-1-yl)sulfonyl)phenoxy)-N-cyclopropylacetamide] | 95 nM | – | – | –

Further molecules by falling IC50 (H^+/K^+-ATPase), results first:

IC50 (H^+/K^+-ATPase) | Compound | acid inhibition rate at 1 h [1] | acid inhibition rate at 24 h ([2]; 4 mg/kg i.g.) | acid inhibition rate at 24 h ([2]; 8 mg/kg i.g.)
106 nM | CNCc1cc(-c2ccccc2F)n(S(=O)(=O)c2ccc(OCC3(C(=O)NC)CC3)cc2)c1 [Example 6, 1-((4-((2-(2-fluorophenyl)-4-((methylamino)methyl)-1H-pyrrol-1-yl)sulfonyl)phenoxy)methyl)-N-methylcyclopropylcarboxamide] | – | – | –
63 nM | CNCc1cc(-c2ccccc2F)n(S(=O)(=O)c2ccc(OCC(=O)NC)cc2)c1 [Example 4, 2-(4-((2-(2-fluorophenyl)-4-((methylamino)methyl)-1H-pyrrol-1-yl)sulfonyl)phenoxy)-N-methylacetamide] | – | – | –
61 nM | CNCc1cc(-c2ccccc2F)n(S(=O)(=O)c2cccc(OCC(=O)NCCCO)c2)c1 [Example 11] | – | – | –
49 nM | CNCc1cc(-c2ccccc2F)n(S(=O)(=O)c2cccc(OCC(=O)NCCO)c2)c1 [Example 10, 2-(3-((2-(2-fluorophenyl)-4-((methylamino)methyl)-1H-pyrrol-1-yl)sulfonyl)phenoxy)-N-(2-hydroxyethyl)acetamide] | – | – | –
